Measurements from patent publication US11555029B2, “PD-1/PD-L1 inhibitors” (Gilead Sciences, Inc., priority 2018, dated 2023).
“And” between values parts separate entries of the source, which are not always exact repeats. Equal entries are not always repeated.

Tests used:
[1] = test system: HBV-specific CD4+ T cells from CHB patient PBMCs; assay: HBV-specific CD4+ T cell expansion and recall response assay in CHB patient PBMCs (IFN-γ, granzyme B by flow cytometry); type: cell-based, human
Description: (§1) Assays PBMC Isolation from Whole Blood PBMCs were isolated from whole blood using a standard Ficoll® Paque gradient. Briefly, 25-30 mL of blood was gently overlaid on top of 15 mL Ficoll® Paque Plus solution (GE Healthcare, Chicago, Ill.) in a 50 mL Falcon tube, and centrifuged in an Allegra X-14R (Beckman Coulter, Indianapolis, Ind.) at 520 g for 20 minutes at 25° C. […] Next, the cells were centrifuged at 520 g for 5 minutes and red blood cells (RBC) lysed for 5 minutes at room temperature using RBC Lysis Buffer (eBioscience, San Diego, Calif.). […] PBMCs were either subsequently used for the T cell expansion assay, or were cryopreserved with 10% DMSO in PBS before further use. CD8^+ and CD4^+ T Cell 7-Day Expansion and Recall Response Assay
(§2) PBMCs were seeded at 2-4×10^5 cells/well in 96-well round bottom plates (Corning, N.Y.). […] PBMCs were incubated for 7 days at 37° C. with 5% CO2 in a humidified incubator. […] To inhibit protein transport, 1 μg/mL brefeldin. A solution (Sigma) was added to each well. After overnight incubation, cells were processed for immunostaining and flow cytometry as described herein.
(§3) Washed cells were resuspended in Live/Dead Aquamine Stain (Invitrogen) per manufacturer's instructions to determine the viability of the cells by flow cytometry. Live/Dead Aqua stained PBMCs were washed twice with FACS staining buffer (1% FBS in PBS), and then incubated with 50 μL of Fc blocking reagent (BD Biosciences, Franklin Lakes, N.J.) for 10 minutes at room temperature. A mixture of antibodies (50 μL/well) described in Table 6 were added to the blocking solution for surface staining, and PBMCs were incubated with the antibodies for 40 minutes at 4° C. […] Cells were washed twice with the permeabilization reagent included in the FoxP3 staining kit and incubated with antibodies for intracellular staining of IFN-γ and GrB (Table 6) at 1.0 μg/mL. After 1 hour incubation at 4° C., PBMCs were centrifuged and washed twice before being resuspended in FACS buffer. Stained PBMCs were analyzed by flow cytometry using a BD LSRFortessa X-20 Cell Analyzer (Becton Dickinson). BD Comp Beads (BD Biosciences) were used as compensation controls. CD8^+ and CD4^+ T cells were identified by gating on the live Aquamine^−CD3^+CD8^+ and Aquamine^−CD3^+CD4^+ PBMC population respectively.
(§4) Flow cytometry data was analyzed using FlowJo Flow Cytometry Analysis Software v10 (TreeStar, Ashland, Oreg.). Data was exported and statistical analysis was performed using GraphPad Prism v6 (GraphPad Software, La Jolla, Calif.). Statistical significance relative to the DMSO control was calculated by two-tailed, paired t-test.

[2] = test system: HBV-specific CD8+ T cells from CHB patient PBMCs; assay: HBV-specific CD8+ T cell expansion and recall response assay in CHB patient PBMCs (IFN-γ, granzyme B by flow cytometry); type: cell-based, human
Description: as §1, §2, §3, §4

[3] = 650 nM compound 139 or 10 μg/mL durvalumab, PBMCs from 9 of the 14 CHB donors (FIG. 1B)

## COc1nc(-c2cccc(-c3cccc(-c4cnc(CNC[C@@H]5CCC(=O)N5)c(OC)n4)c3Cl)c2Cl)cnc1CNC[C@@H]1CCC(=O)N1 [compound 139]
[1]; 650 nM compound 139, HBV core peptide-stimulated PBMCs from CHB donors, vs DMSO
  increase of granzyme B (GrB)+ CD4+ T cells: 1.8 fold
[1]; 650 nM compound 139 or 10 μg/mL durvalumab treated PBMCs
  frequency of CD4+ IFN-γ+ T cells: 2.5%
[1]; 650 nM compound 139 or 10 μg/mL durvalumab, DMSO 3.5%
  frequency of GrB+CD4+ T cells: 4.7%
[1]; FIG. 2A and FIG. 2B
  IFN-γ and Granzyme B Production in chronic hepatitis B (CHB) CD4+ T Cells: enhances
[2]; 650 nM compound 139, HBV core peptide-stimulated PBMCs from 14 CHB donors, vs DMSO
  increase of granzyme B (GrB)+ CD8+ T cells: 1.2 fold
[2]; [3]
  increase of GrB+CD8+ T cells, comparison with durvalumab: 1.2 fold
  increase of IFN-γ+CD8+ T cells, comparison with durvalumab: 2.5 fold
[2]; FIG. 1A and FIG. 1B
  IFN-γ and Granzyme B Production in chronic hepatitis B (CHB) CD8+ T Cells: enhances
[2]; individual CHB donor, HBV core peptide-stimulated PBMCs, compound 139 650 nM
  % IFN-γ+ (IFN-γ+ CD8+ T cells): 0.94% and 0.41% and 0.61% and 0.90% and 0.30%
